Data taken from paper PMC2820545, “Mechanistic Characterization and Molecular Modeling of Hepatitis B Virus Polymerase Resistance to Entecavir” (PLoS ONE, 2010).
Several values for one entry are separate records, joined by “and”; a condition that tells them apart may be missing. Identical values can stand only once. Like-named read-outs stand apart in the source and are kept apart here.

Tests used:
[1] = molecular target: ETVr HBV polymerases (ETVr signature substitutions in a LVDr background); assay: In vitro HBV polymerase assay, ETVr enzymes as a group; type: biochemical, hepatitis B virus
From the text: (§1) To provide the data in Tables 1 & 2, intracellular HBV nucleocapsids were isolated from HBV transfected HepG2 cells and used in endogenous polymerase assays (EPA), exactly as previously described in detail. Essentially, clarified, detergent and nuclease-treated HBV-transfected cell lysates were centrifugally sedimented through a 25% wt/vol sucrose cushion. Sedimented nucleocapsids were used in polymerase reactions with [33P]-labeled dNTPs and TCA-precipitable radioactivity was used as an indication of the HBV polymerase activity, as described.
(§2) In order to increase the activity of the EPA reactions, we used nucleocapsids from cells treated with phosphonoformic acid (foscarnet, PFA; Sigma) during culture. […] PFA inhibits synthesis of all HBV DNA forms and both strands of HBV DNA, but not priming, and has a cell culture EC50 of approximately 5 mM for HBV [48].
(§3) The HBV polymerase dNTP Km values were determined from similar assays where the concentration of dNTP was serially diluted from 1000 nM to 0.3 nM. All other dNTPs were used at a fixed concentration equal to the highest test dNTP concentration with one-tenth of the TTP in the form of [α^33P] TTP (3000 Ci/mmol; PerkinElmer, Boston, MA). The apparent Km values were obtained from Lineweaver-Burke plots of the data generated by GraphPad PRISM™ software version 3.0 (San Diego, CA). The Ki values were calculated using the Cheng-Prusoff equation: Ki = IC50/(1+[S]/Km). The enzyme concentration within HBV nucleocapsid preparations was found by determining the level of covalently-linked HBV DNA using quantitative real-time PCR [9] and converting to genome equivalents [1 pg double stranded HBV DNA = 3×10^5 genome equivalents [34]]. The primers were positioned near the 5′ end of minus strand DNA in an attempt to measure all enzymatically active molecules.

[2] = molecular target: T1, LVDr + S202G HBV polymerase (Hepatitis B virus genotype D subtype ayw, UniProt P03156, L515M/M539V/S537G); assay: In vitro HBV polymerase assay (endogenous polymerase assay with nucleocapsids); type: biochemical; settings: for IC50: In vitro polymerase
T1 construct: intracellular HBV nucleocapsids were isolated from HBV transfected HepG2 cells and used in endogenous polymerase assays; expressed in transfected cells; host or cells: HepG2 cells transfected with a mutated HBV expression plasmid
From the text: as §1, §2, §3

Wildtype HBV polymerase = molecular target: T2, Wildtype HBV polymerase (Hepatitis B virus genotype D subtype ayw, UniProt P03156); assay: as above; type: biochemical
T2 construct: intracellular HBV nucleocapsids were isolated from HBV transfected HepG2 cells and used in endogenous polymerase assays; expressed in transfected cells; host or cells: HepG2 cells transfected with pCMV-HBV
From the text: as §1, §2, §3

[3] = molecular target: T3, LVDr + M250V HBV polymerase (Hepatitis B virus genotype D subtype ayw, UniProt P03156, L515M/M539V/M585V); assay: as above; type: biochemical; settings: for IC50: In vitro polymerase
T3 construct: intracellular HBV nucleocapsids were isolated from HBV transfected HepG2 cells and used in endogenous polymerase assays; expressed in transfected cells; host or cells: HepG2 cells transfected with a mutated HBV expression plasmid
From the text: as §1, §2, §3

[4] = molecular target: T4, LVDr + T184G + S202I HBV polymerase (Hepatitis B virus genotype D subtype ayw, UniProt P03156, L515M/M539V/S537I/T519G); assay: as above; type: biochemical; settings: for IC50: In vitro polymerase
T4 construct: intracellular HBV nucleocapsids were isolated from HBV transfected HepG2 cells and used in endogenous polymerase assays; expressed in transfected cells; host or cells: HepG2 cells transfected with an HBV expression plasmid
From the text: as §1, §2, §3

[5] = molecular target: T5, LVDr + T184L HBV polymerase (Hepatitis B virus genotype D subtype ayw, UniProt P03156, L515M/M539V/T519L); assay: as above; type: biochemical
T5 construct: intracellular HBV nucleocapsids were isolated from HBV transfected HepG2 cells and used in endogenous polymerase assays; expressed in transfected cells; host or cells: HepG2 cells transfected with a mutated HBV expression plasmid
From the text: as §1, §2, §3

[6] = molecular target: T6, LVDr L180M + M204V HBV polymerase (Hepatitis B virus genotype D subtype ayw, UniProt P03156, L515M/M539V); assay: as above; type: biochemical; settings: for IC50: In vitro polymerase, LVDr L180M + M204V
T6 construct: intracellular HBV nucleocapsids were isolated from HBV transfected HepG2 cells and used in endogenous polymerase assays; expressed in transfected cells; host or cells: HepG2 cells transfected with a mutated HBV expression plasmid
From the text: as §1, §2, §3

[7] = tested on: HBV clones with ETVr signature substitutions in a LVDr background; settings: cited from earlier work
HBV = tested on: HBV; set-up: method as in PMID 7601429; settings: read-out: cell culture EC50; cited from earlier work
Wildtype HBV = assay: HBV cell culture susceptibility (HBV-transfected HepG2 cells); type: cell-based; settings: Hepatitis B virus, wildtype HBV in culture, read-out: LVD EC50
Method: (§4) HepG2 human hepatoma cells (American Type Culture Collection) were maintained as described. The laboratory clone of HBV was the genotype D ayw serotype clone kindly provided by Dr. Steven Goff in the plasmid pCMV-HBV [41]. Plasmids expressing HBV RT with resistance substitutions were prepared using QuikChange® site-directed mutagenesis (Stratagene, LaJolla, CA).
(§5) HepG2 cell culture susceptibility assays were performed in cells transfected with HBV expression plasmids and cultured in the presence of a titration of antiviral compounds, as described in detail elsewhere. The levels of replicated, released HBV virions was measured at day five through immunocapture of detergent released nucleocapsids with anti-HBV core Ab and quantification of encapsidated HBV DNA [5]. Data were plotted as percent inhibition and EC50 values calculated as the drug concentration where 50% inhibition of extracellular HBV occurred.

[8] = tested on: singly M250V substituted HBV; assay: as above; type: cell-based, hepatitis B virus
From the text: The M250V substituted HBV RT in the absence of LVDr changes was constructed and tested for susceptibility to LVD, an obligate chain terminator which should not be impacted by the mechanism that could potentially affect ETV chain termination.
as §4, §5

[9] = fold change from wildtype value, LVDr + S202G
[10] = fold change from wildtype value, Wildtype (WT)
[11] = fold change from wildtype value, LVDr + M250V
[12] = fold change from wildtype value, LVDr + T184G + S202I
[13] = fold change from wildtype value, LVDr + T184L
[14] = fold change from wildtype value, LVDr M204V+L180M

T4 sequence (P03156 whole entry L515M/T519G/S537I/M539V): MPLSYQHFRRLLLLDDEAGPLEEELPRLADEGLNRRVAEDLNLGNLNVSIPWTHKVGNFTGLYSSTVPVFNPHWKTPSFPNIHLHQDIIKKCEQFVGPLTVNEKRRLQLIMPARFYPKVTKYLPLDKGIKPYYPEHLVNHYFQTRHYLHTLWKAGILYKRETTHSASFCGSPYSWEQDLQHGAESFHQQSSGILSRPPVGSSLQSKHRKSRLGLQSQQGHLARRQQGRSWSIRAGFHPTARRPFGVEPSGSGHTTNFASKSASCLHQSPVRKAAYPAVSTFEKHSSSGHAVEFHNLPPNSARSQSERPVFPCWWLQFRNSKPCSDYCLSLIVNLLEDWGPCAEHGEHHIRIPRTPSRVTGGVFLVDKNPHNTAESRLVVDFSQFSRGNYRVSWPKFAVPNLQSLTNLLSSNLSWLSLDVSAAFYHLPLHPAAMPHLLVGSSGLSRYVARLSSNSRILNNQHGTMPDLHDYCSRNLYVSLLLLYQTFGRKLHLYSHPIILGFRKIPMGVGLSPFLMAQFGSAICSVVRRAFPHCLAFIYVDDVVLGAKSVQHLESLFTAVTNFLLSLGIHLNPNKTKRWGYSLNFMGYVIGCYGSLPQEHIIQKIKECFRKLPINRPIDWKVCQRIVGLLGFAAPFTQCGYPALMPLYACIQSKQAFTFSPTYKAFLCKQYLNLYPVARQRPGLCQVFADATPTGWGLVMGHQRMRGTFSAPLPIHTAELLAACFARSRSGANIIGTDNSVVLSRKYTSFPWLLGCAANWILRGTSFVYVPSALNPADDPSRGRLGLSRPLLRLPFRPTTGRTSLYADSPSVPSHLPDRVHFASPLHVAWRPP
T1 sequence (P03156 whole entry L515M/S537G/M539V): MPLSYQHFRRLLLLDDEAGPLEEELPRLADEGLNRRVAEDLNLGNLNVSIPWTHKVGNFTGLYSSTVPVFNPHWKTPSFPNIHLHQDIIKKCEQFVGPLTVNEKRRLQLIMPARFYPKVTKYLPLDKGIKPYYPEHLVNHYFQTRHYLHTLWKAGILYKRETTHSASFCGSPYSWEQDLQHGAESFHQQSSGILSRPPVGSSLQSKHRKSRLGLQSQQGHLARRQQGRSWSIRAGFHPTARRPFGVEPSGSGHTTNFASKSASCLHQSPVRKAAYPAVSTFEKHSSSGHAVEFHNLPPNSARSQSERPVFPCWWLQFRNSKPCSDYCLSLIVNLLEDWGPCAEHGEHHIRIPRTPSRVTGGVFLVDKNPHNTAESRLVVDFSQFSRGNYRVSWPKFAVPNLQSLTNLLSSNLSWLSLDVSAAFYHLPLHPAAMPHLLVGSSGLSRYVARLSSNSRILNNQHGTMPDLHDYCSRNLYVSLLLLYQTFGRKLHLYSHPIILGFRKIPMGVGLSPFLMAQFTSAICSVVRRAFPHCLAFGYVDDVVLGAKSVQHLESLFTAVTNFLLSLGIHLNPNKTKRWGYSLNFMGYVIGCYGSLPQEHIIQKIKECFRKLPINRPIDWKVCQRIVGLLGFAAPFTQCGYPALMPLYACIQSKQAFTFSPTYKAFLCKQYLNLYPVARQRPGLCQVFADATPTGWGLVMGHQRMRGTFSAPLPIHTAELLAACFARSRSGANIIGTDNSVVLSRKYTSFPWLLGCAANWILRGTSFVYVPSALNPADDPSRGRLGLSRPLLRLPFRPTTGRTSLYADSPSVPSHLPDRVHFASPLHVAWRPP
T2 sequence (P03156 whole entry): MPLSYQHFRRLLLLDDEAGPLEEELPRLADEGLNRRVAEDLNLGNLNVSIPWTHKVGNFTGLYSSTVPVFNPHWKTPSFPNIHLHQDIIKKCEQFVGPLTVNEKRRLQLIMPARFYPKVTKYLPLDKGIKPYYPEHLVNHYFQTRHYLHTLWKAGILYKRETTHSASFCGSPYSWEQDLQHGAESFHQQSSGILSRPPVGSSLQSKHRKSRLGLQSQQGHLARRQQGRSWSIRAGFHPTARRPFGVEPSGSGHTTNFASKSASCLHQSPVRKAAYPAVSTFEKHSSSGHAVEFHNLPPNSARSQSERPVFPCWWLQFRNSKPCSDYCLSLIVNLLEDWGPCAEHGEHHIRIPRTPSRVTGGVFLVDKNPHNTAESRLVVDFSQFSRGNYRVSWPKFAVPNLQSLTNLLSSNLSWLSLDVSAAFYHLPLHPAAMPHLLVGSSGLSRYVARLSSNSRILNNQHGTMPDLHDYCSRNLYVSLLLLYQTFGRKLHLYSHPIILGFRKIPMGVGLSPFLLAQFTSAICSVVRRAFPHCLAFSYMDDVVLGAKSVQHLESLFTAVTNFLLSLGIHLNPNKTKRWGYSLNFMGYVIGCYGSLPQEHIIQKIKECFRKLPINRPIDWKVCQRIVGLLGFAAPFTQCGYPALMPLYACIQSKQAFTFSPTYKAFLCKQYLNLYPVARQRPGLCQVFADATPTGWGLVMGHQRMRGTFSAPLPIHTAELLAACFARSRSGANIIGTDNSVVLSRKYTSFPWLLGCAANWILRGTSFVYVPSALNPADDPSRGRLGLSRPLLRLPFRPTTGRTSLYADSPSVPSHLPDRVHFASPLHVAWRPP
T3 sequence (P03156 whole entry L515M/M539V/M585V): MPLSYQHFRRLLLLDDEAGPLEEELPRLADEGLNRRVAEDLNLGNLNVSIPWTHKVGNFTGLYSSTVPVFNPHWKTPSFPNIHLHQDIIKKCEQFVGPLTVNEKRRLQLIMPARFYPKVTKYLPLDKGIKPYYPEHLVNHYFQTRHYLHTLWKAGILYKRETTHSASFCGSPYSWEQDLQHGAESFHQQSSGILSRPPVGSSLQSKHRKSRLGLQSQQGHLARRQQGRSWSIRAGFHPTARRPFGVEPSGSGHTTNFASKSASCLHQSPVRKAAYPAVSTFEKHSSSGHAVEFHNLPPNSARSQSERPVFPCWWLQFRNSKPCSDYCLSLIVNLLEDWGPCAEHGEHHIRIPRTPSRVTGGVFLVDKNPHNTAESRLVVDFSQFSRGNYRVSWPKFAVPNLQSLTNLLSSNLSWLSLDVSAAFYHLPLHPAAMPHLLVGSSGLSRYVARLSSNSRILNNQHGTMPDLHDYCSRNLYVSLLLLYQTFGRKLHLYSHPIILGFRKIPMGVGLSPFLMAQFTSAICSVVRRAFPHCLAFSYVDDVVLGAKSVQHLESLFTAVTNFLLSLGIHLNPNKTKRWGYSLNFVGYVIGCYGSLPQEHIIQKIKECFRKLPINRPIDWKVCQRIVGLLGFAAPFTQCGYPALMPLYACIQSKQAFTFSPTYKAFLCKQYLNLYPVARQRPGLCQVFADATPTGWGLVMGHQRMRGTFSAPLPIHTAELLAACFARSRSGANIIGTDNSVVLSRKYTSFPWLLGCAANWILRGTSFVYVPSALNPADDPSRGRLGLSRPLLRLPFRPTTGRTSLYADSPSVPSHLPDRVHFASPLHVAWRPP
T5 sequence (P03156 whole entry L515M/T519L/M539V): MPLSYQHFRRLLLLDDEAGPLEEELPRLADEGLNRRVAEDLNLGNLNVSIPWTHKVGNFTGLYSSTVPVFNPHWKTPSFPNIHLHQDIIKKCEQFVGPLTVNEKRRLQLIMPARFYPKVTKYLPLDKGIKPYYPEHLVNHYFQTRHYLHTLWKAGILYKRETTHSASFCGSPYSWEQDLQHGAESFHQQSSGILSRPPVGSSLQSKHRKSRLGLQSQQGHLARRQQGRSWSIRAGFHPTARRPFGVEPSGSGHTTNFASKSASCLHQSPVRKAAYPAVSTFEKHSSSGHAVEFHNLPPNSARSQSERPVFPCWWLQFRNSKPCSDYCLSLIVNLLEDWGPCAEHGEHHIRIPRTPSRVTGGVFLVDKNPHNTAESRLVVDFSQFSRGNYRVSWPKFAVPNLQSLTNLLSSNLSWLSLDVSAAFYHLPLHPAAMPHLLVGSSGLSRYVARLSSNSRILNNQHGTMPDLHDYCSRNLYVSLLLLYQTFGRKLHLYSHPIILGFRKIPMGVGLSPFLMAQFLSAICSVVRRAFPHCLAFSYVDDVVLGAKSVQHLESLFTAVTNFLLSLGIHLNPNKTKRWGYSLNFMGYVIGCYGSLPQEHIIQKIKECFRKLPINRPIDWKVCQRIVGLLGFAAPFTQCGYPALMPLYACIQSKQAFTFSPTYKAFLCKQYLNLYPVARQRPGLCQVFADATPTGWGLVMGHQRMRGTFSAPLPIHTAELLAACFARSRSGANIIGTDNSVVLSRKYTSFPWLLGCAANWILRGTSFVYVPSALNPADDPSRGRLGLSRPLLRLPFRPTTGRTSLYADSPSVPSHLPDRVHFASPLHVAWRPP
T6 sequence (P03156 whole entry L515M/M539V): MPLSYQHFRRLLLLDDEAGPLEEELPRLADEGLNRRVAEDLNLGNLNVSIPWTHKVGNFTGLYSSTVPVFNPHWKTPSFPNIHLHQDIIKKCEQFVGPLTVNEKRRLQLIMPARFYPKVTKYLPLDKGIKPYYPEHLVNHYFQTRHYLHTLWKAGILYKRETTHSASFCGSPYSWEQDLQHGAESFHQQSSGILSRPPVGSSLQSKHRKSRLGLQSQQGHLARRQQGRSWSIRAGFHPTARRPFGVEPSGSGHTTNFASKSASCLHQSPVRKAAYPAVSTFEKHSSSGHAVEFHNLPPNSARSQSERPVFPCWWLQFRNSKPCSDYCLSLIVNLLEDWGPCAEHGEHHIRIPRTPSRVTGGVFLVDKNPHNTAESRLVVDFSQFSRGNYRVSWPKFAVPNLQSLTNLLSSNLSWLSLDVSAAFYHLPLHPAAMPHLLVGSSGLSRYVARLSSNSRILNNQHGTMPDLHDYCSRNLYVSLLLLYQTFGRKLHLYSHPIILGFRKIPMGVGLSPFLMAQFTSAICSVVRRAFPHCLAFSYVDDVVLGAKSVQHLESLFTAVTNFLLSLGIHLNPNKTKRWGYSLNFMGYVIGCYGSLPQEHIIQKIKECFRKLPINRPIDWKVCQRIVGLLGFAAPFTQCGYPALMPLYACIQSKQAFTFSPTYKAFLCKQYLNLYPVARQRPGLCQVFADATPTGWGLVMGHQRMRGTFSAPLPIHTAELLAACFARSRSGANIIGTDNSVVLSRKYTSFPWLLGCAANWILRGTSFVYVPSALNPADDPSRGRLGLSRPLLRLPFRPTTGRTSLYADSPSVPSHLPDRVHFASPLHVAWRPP

For `C=C1[C@H](COP(=O)(O)OP(=O)(O)OP(=O)(O)O)[C@@H](O)C[C@@H]1n1cnc2c(=O)[nH]c(N)nc21` [ETV-TP, ETV-triphosphate], the “Ki/dGTP Km ratio, change from the wildtype” value ([1]; ETVr enzymes) was “more than 600 fold”, the “level of ETVr in vitro” value ([1]; ETVr signature substitutions in a LVDr background, in vitro polymerase) was > 400 fold and the Ki/Km ([2]; ETV-TP Ki / dGTP Km ratio, LVDr + S202G) was 69.9. For the same compound, the IC50 ([2]; LVDr + S202G, read-out: ETV-TP IC50, Average ± SD (Range)) was 0.258 ± 0.0255 µM, the Ki ([2]; calculated with Cheng-Prusoff equation, LVDr + S202G polymerase, read-out: Ki (ETV-TP)) was 0.147 µM and the “Ki (Fold WT)” value [2, 9] was 366.8 fold. The “Ki/Km (Fold WT)” value [2, 9] was 873.8 fold, the IC50 (Wildtype HBV polymerase; In vitro polymerase, Wildtype, read-out: ETV-TP IC50, Average ± SD (Range)) was 0.0005 ± 0.0001 µM and the Ki (Wildtype HBV polymerase; calculated with Cheng-Prusoff equation, Wildtype (WT) polymerase, read-out: Ki (ETV-TP)) was 0.0004 µM. For the same compound, the “Ki (Fold WT)” value (Wildtype HBV polymerase; [10]) was 1 fold, the “Ki/Km (Fold WT)” value (Wildtype HBV polymerase; [10]) was 1 fold and the Ki/Km ([3]; ETV-TP Ki / dGTP Km ratio, LVDr + M250V) was 52.7. For the same compound, the IC50 ([3]; LVDr + M250V, read-out: ETV-TP IC50, Average ± SD (Range)) was 0.229 ± 0.0495 µM, the Ki ([3]; calculated with Cheng-Prusoff equation, LVDr + M250V polymerase, read-out: Ki (ETV-TP)) was 0.121 µM and the “Ki (Fold WT)” value [3, 11] was 303.0 fold. For the same compound, the “Ki/Km (Fold WT)” value [3, 11] was 658.8 fold, the Ki/Km ([4]; ETV-TP Ki / dGTP Km ratio, LVDr + T184G + S202I) was 221.6 and the IC50 ([4]; LVDr + T184G + S202I, read-out: ETV-TP IC50, Average ± SD (Range)) was 0.636 ± 0.019 µM. The Ki ([4]; calculated with Cheng-Prusoff equation, LVDr + T184G + S202I polymerase, read-out: Ki (ETV-TP)) was 0.155 µM, the “Ki (Fold WT)” value [4, 12] was 387.8 fold and the “Ki/Km (Fold WT)” value [4, 12] was 2770.0 fold. For the same compound, the Ki/Km ([5]; ETV-TP Ki / dGTP Km ratio, LVDr + T184L) was 118.2, the IC50 ([5]; In vitro polymerase, LVDr + T184L, read-out: ETV-TP IC50, Average ± SD (Range)) was 0.373 ± 0.143 µM and the Ki ([5]; calculated with Cheng-Prusoff equation, LVDr + T184L polymerase, read-out: Ki (ETV-TP)) was 0.225 µM. The “Ki (Fold WT)” value [5, 13] was 561.3 fold, the “Ki/Km (Fold WT)” value [5, 13] was 1477.5 fold and the Ki/Km ([6]; ETV-TP Ki / dGTP Km ratio, LVDr M204V+L180M) was 3.5. For the same compound, the IC50 ([6]; read-out: ETV-TP IC50, Average ± SD (Range)) was 0.0271 ± 0.0056 µM, the Ki ([6]; calculated with Cheng-Prusoff equation, LVDr M204V+L180M polymerase, read-out: Ki (ETV-TP)) was 0.0123 µM and the “Ki (Fold WT)” value [6, 14] was 30 fold and 30.8 fold. The “Ki/Km (Fold WT)” value [6, 14] was 43.8 fold.

In the case of `C[C@H](Cn1cnc2c(N)ncnc21)OCP(=O)(O)O` [tenofovir], the “susceptibility of ETVr HBV in cell culture” value [7] is listed as “does not show reduced susceptibility”.

In the case of `Nc1ncnc2c1ncn2CCOCP(=O)(O)O` [adefovir], the “susceptibility of ETVr HBV in cell culture” value [7] is given as “does not show reduced susceptibility”.

For `O=C(O)P(=O)(O)O` [PFA, phosphonoformic acid], the EC50 (HBV) is listed as ~5000 µM.

In the case of `Nc1ccn([C@@H]2CS[C@H](CO)O2)c(=O)n1` [LVD, lamivudine], the EC50 (Wildtype HBV) is reported as 0.794 µM, the EC50 ([8]; Hepatitis B virus, HepG2, M250V HBV (no LVDr changes) in culture, read-out: LVD EC50) is reported as 0.116 µM and the “hypersensitivity to LVD in culture” value ([8]; {}) is reported as 7 fold.

For `Nc1nc2c(ncn2[C@H]2CC[C@@H](COP(=O)(O)OP(=O)(O)OP(=O)(O)O)O2)c(=O)[nH]1` [ddGTP, 2′,3′-dideoxyguanosine-5′-triphosphate], the “ddGTP IC50 of ETVr isolates relative to background” value ([1]; ETVr isolates, in vitro polymerase) was “approximately two-fold above background”, the IC50 ([2]; LVDr + S202G, read-out: ddGTP IC50, Average ± SD (Range)) was 0.125 ± 0.0088 µM and the IC50 (Wildtype HBV polymerase) was 0.0876 µM. For the same compound, the IC50 ([3]; LVDr + M250V, read-out: ddGTP IC50, Average ± SD (Range)) was 0.154 ± 0.0514 µM, the IC50 ([4]; LVDr + T184G + S202I, read-out: ddGTP IC50, Average ± SD (Range)) was 0.188 ± 0.0067 µM and the IC50 ([6]; read-out: ddGTP IC50, Average ± SD (Range)) was 0.138 ± 0.01 µM.

For `Nc1nc2c(ncn2[C@H]2C[C@H](O)[C@@H](COP(=O)(O)OP(=O)(O)OP(=O)(O)O)O2)c(=O)[nH]1` [dGTP], the “change of dGTP Km by ETVr changes” value ([1]; ETVr enzymes except the quadruple-substituted RT) was 2.2- to 2.6 fold, the Km ([2]; apparent Km, LVDr + S202G polymerase, read-out: dGTP Km) was 2.1 ± 0.1 nM and the “dGTP Km (Fold WT)” value [2, 9] was 2.4 fold. For the same compound, the Km (Wildtype HBV polymerase; apparent Km, Wildtype (WT) polymerase, read-out: dGTP Km) was 5 ± 0.5 nM, the “dGTP Km (Fold WT)” value (Wildtype HBV polymerase; [10]) was 1 fold and the Km ([3]; apparent Km, LVDr + M250V polymerase, read-out: dGTP Km) was 2.3 ± 0.5 nM. The “dGTP Km (Fold WT)” value [3, 11] was 2.2 fold, the Km ([4]; apparent Km, LVDr + T184G + S202I polymerase, read-out: dGTP Km) was 0.7 ± 0.1 nM and the Km ([5]; apparent Km, LVDr + T184L polymerase, read-out: dGTP Km) was 1.9 ± 0.6 nM. The “dGTP Km (Fold WT)” value [5, 13] was 2.6 fold and the Km ([6]; apparent Km, LVDr M204V+L180M polymerase, read-out: dGTP Km) was 3.5 ± 0.4 nM.
